Results published in patent US12195435B2, “5-methylchromone and the preparation method and application thereof” (HAINAN MEDICAL UNIVERSITY, priority 2020, dated 2025).

Target: tyrosinase
Assay: Determination of the activity of compounds inhibiting tyrosinase (L-tyrosine substrate, absorbance at 475 nm)
Type: biochemical
Details: for IC50: L-tyrosine 0.1 mg/mL, tyrosinase 48 U/mL, pH 6.8, 37° C. 30 min, n = 3, read-out: IC50 ± SEM (tyrosinase inhibition); for tyrosinase inhibitory activity (in words, compared with aloesin): comparison with positive control aloesin
Procedure: Method for determining the activity of inhibiting tyrosinase: Firstly, adding the sample: 40 μL (10% DMSO, setting different concentrations (0, 25, 50, 100, 200 μg/mL)) into a 96-well plate (aloesin is the positive control), then adding L-tyrosine: 40 μL (0.1 mg/mL, dissolving in 0.1M potassium phosphate buffer solution, pH=6.8), tyrosinase: 40 μL (48 U/mL, dissolving in 0.1M potassium phosphate buffer solution, pH=6.8), and finally diluting the volume to 200 μL with potassium phosphate buffer solution, and detecting the absorbance at 475 nm on 0 min; after incubating at 37° C. for 30 min, measuring the absorbance.

IC50 [µM] | Compound | tyrosinase inhibitory activity (in words, compared with aloesin)
2700 ± 40 | CC(=O)Cc1cc(=O)c2c(C)cc(O)c([C@@H]3O[C@H](CO)[C@@H](O)[C@H](O)[C@H]3O)c2o1 [Aloesin, aloesin, reference compound] | 
9300 ± 90 | Cc1cc(=O)c2c(C)cc(O)cc2o1 [Compound 1-1] | 
6200 ± 70 | CCc1cc(=O)c2c(C)cc(O)cc2o1 [Compound 1-2] | 
2400 ± 100 | CCCc1cc(=O)c2c(C)cc(O)cc2o1 [Compound 1-3] | 
5400 ± 30 | Cc1cc(O)cc2oc(C(C)(C)C)cc(=O)c12 [Compound 1-4] | 
200 ± 70 | CCCc1cc(=O)c2c(C)cc(OC)cc2o1 [Compound 1-5] | higher than the tyrosinase inhibitory activity of aloesin
600 ± 30 | CCCc1cc(=O)c2c(C)cc(OCC)cc2o1 [Compound 1-6] | higher than the tyrosinase inhibitory activity of aloesin
